Assays:
[1] = Pharmacokinetic evaluation in CD-1 mice; assay type: in vivo; conditions: oral administration 10.0 mg/kg
Experimental: Experimental Example 3: Pharmacokinetic Evaluation of the Compound of the Present Disclosure in […]
Experimental purpose: To test the pharmacokinetics of the compound in CD-1 mice in vivo
(§1) Experimental materials: CD-1 mice (male, 20 to 40 g, 4 to 6 weeks old, Beijing Vital River)
The pharmacokinetic characteristics of the compound in rodents after intravenous injection and oral administration were tested according to the standard protocol. In the experiment, the candidate compound was formulated into clear solutions, and a single intravenous injection and oral administration were respectively given to two mice. The vehicle of intravenous injection and oral administration was 1:1:8 DMSO/Solutol/water. The whole blood samples within 24 hours were collected in commercial EDTA2K anticoagulant tubes. The tubes were centrifuged at 6000 g for 3 minutes. The supernatant was separated to obtain plasma samples. 20 times the volume of acetonitrile solution containing internal standard was added to precipitate protein. The mixture was centrifuged. The supernatant was take out. An equal volume of water was added. Then the mixture was centrifuged to take the supernatant as the sample for sampling. Plasma concentration was quantitatively analyzed by LC-MS/MS analysis method, and pharmacokinetic parameters were calculated, such as apparent volume of distribution, clearance rate, half-life, area under the drug-time curve.

[2] = Mouse tissue (bone marrow) distribution; assay type: in vivo; conditions: CD-1 mice
Experimental: Experimental Example 5: Evaluation of Mouse Tissue (Bone Marrow) Distribution of the Compound of the Present Disclosure
Experimental purpose: To test the distribution of the compound of the present disclosure in the bone marrow and plasma of CD-1 mice
as §1
The content of the compound in the bone marrow and plasma of mice after oral administration was tested according to the standard protocol. In the experiment, the candidate compound was formulated into a clear solution. The vehicle was 5:95 DMSO and 10% hydroxypropyl β-cyclodextrin aqueous solution. A dose of 5 mg/kg was given to mice as a single oral administration. The whole blood samples and bone marrow samples were collected at 0.25, 0.5, 1, 2, 4, 6, and 24 hours, respectively. The whole blood samples were collected in commercial EDTA2K anticoagulant tubes. The tubes were centrifuged at 6000 g for 3 minutes. The supernatant was separated to obtain plasma samples. The acetonitrile solution containing internal standard was added to precipitate protein. The mixture was centrifuged. The supernatant was take out. An equal volume of water was added. After mixing well, plasma concentration was quantitatively analyzed by LC-MS/MS analysis method, and the area under the drug-time curve was calculated. The femur and tibia on both sides of the mice were taken, and the muscle was removed. One end was cut off, placed in a centrifuge tube with the open end downwards. The tubes were centrifuged at 8000 rpm for 1 minute. The precipitate was bone marrow. The bone marrow was mixed with 50% methanol-water, grinded into a homogenate. The homogenate was added with an acetonitrile solution containing an internal standard to precipitate protein. The mixture was centrifuged to take the supernatant, added with an equal volume of water. After mixing well, the drug concentration in bone marrow was quantitatively analyzed by LC-MS/MS analysis method, and the area under the drug-time curve was calculated.
The calculation formula of bone marrow/plasma distribution coefficient is: Bone marrow/Plasma Ratio=bone marrow AUC0-last/plasma AUC0-last.

[3] = target: Recombinant human cathepsin C/DPP1; assay: Inhibition effect test of DPP1 enzyme activity; assay type: biochemical; conditions: recombinant human cathepsin C/DPP1, Gly-Arg-AMC substrate 12.5 μM, 25° C. 60 minutes; read-out: IC50, inhibitory activity on DPP1 enzyme
Experimental: Experimental Example 1: Inhibition Effect Test of DPP1 Enzyme Activity
Recombinant human cathepsin C/DPP1 was purchased from R&D Systems;
Recombinant human cathepsin L (rhCathepsin L) was purchased from R&D Systems;
Gly-Arg-AMC (hydrochloride) was purchased from CAYMAN CHEMICAL COMPANY.
1× activation buffer: 5 mM DTT 0.01% (V/V) Triton X-100 (preparation for current use);
1× assay buffer: 50 mM NaCl 5 mM DTT 0.01% (V/V) Triton X-100 (preparation for current use);
1× activation buffer was used to dilute recombinant human cathepsin C/DPP1 enzyme and recombinant human cathepsin L (rhCathepsin L) enzyme to concentrations of 2 ng/μL and 0.4 ng/μL, respectively; equal volume of two working solutions of enzyme was taken, mixed well and incubated at 25° C. for 60 minutes;
the compounds to be tested were 5-fold diluted with a multi-channel pipette to the 8th concentration, i.e., diluted from 1 mM to 12.8 nM. Then 1× experimental buffer was used to dilute each compound to be tested by gradient into a 4% DMSO working solution. The working solution was added to corresponding wells for 5 μL/well, and duplicate experiment was set. The mixture was centrifuged at 1000 rpm for 1 minute;
5 μL/well of the enzyme mixture after incubation was taken and added to the white microwell plate. At this time, the amount of DPP1 enzyme in each well was 5 ng; 1× experimental buffer in 5 μL/well was added to the blank control well;
Gly-Arg-AMC (hydrochloride) was diluted to 25 μM with 1× assay buffer. The diluted mixture in 10 μL/well was added to a white microwell plate. The substrate concentration was 12.5 μM at this time, and the microplate was centrifuged in a centrifuge at 1000 rpm for 1 minute. […] After centrifugation, the microplate was covered with membrane and incubated at 25° C. for 60 minutes;
after incubation, fluorescence detection was performed using a multi-label analyzer with an excitation wavelength of 360 nm and an emission wavelength of 460 nm.
Using the equation (Sample−Min)/(Max−Min)×100% to convert the raw data into enzyme activity, the IC50 value might be obtained by curve fitting with four parameters (obtained by “log (inhibitor) vs. response—Variable slope” mode in GraphPad Prism).
Max: Contains recombinant human cathepsin C/DPP1, recombinant human cathepsin L (rhCathepsin L), and Gly-Arg-AMC (hydrochloride)
Min: No recombinant human cathepsin C/DPP1 and recombinant human cathepsin L (rhCathepsin L)

[4] = plasma, intravenous injection 2.0 mg/kg
[5] = bone marrow, 5 mg/kg single oral administration

Q: Which “Bioavailability F” value ([1]; intravenous injection 2.0 mg/kg) does the source give for `Cn1ncc2ccc(-c3ccc(C[C@@H](C#N)NC(=O)[C@@H]4CNCCCO4)c(F)c3)cc21` [Compound 8] here?
A: 79.6%

Q: What about the “Clearance rate CL” value [1, 4] of the same compound?
A: 18.7 mL/min/kg

Q: What about the “Volume of distribution at steady state Vdss” value [1, 4] of the same compound?
A: 8.3 L/kg

Q: What about the Cmax ([1]; plasma, intravenous injection 2.0 mg/kg, read-out: Peak concentration Cmax) of the same compound?
A: 2310 nM

Q: What about the “Area under drug-time curve AUC0-∞ PO” value ([1]; plasma) of the same compound?
A: 17.008 µM·h

Q: What about the “Half life T1/2 (PO)” value ([1]; plasma) of the same compound?
A: 4.6 h

Q: And the “Bone marrow/plasma distribution coefficient” value ([2]; 5 mg/kg oral, bone marrow AUC0-last/plasma AUC0-last)?
A: 4.5

Q: What about the “Bone marrow Area under drug-time curve AUC0-last PO” value [2, 5] of the same compound?
A: 82362 nmol·h/kg

Q: What about the “Bone marrow Peak concentration Cmax” value [2, 5] of the same compound?
A: 6113 nmol/kg

Q: What about the “Plasma Area under drug-time curve AUC0-last PO” value ([2]; plasma, 5 mg/kg single oral administration) of the same compound?
A: 18.362 µM·h

Q: What about the Cmax ([2]; plasma, 5 mg/kg single oral administration, read-out: Plasma Peak concentration Cmax) of the same compound?
A: 2300 nM

Q: And the IC50 [3]?
A: 3.57 nM

Reference: patent US20240150335A1, “FUSED RING DERIVATIVES CONTAINING 1,4-OXAZEPANE” (MEDSHINE DISCOVERY INC., priority 2021, published 2024)
